Data on 44 compounds can be found in US20220340564A1, “ANTIBACTERIAL COMPOUNDS” (Janssen Sciences Ireland Unlimited Company, priority 2019, published 2022).

Series [1] can be described thus: in vitro. Particulars: mouse, microsomes.
For the next series, the target named is hERGdof (Homo sapiens, UniProt Q12809). The series is described as follows: CVS panel, hERGdof. Particulars: read-out: CVS hERGdof, IC50. The class given is binding.
In another series the test system is Na Ch. The series is described as follows: CVS panel, Na channel.
Series [2] relates to Mycobacterium tuberculosis strain EH4.0 expressing green-fluorescent protein (GFP). Briefly: microbe, parasite or virus in culture. In kind it is cell-based. The following applies: 168 h, read-out: pIC50 (converted).
Series [3] concerns Cyp-450 (cocktail, isoforms not named). The series is described as follows: Cocktail Cyp-450 inhibition. The following applies: unit inferred; read-out: Cocktail Cyp-450, IC50. The class given is in vitro ADME. The text has this:
(§1) The compounds of the invention/examples may have advantages associated with in vitro potency, kill kinetics (i.e. bactericidal effect) in vitro, PK properties, food effect, safety/toxicity (including liver toxicity, coagulation, […]), metabolic stability, Ames II negativity, MNT negativity, aqueous based solubility (and ability to formulate) and/or cardiovascular effect e.g. on animals (e.g. anesthetized guinea pig). The data below that was generated/calculated may be obtained using standard methods/assays, for instance that are available in the literature or which may be performed by a supplier (e.g. Microsomal Stability Assay—Cyprotex, Mitochondrial toxicity (Glu/Gal) assay —Cyprotex, as well as literature CYP cocktail inhibition assays). In some instances, GSH was measured (reactive metabolites, glucuronidation) to observe if a dihydrodiol is observed by LCMS (fragmentation ions), which would correspond to a dihydroxylation on the core heterocycle.

Another series has as its system Ca Ch. Briefly: CVS panel, Ca channel.
Excerpt: as §1

Series [4] is described as follows: GSH (GSH/CN) reactive metabolite measurement. The class given is in vitro ADME.
Excerpt: as §1

The nature of series [5]: in vitro. Particulars: human, microsomes.
The target of a further series is hERG (Homo sapiens, UniProt Q12809). Briefly: CVS panel, hERGdof. In kind it is binding. Particulars: human.
Series [6] in a line: Microsomal stability CLint (H). Particulars: human, microsomes.
Series [7] in a line: Microsomal stability CLint (M). Particulars: mouse, microsomes.
A short description of series [8]: Mitochondrial toxicity (Glu/Gal) assay. In kind it is cell-based.
Excerpt: as §1

The conditions of series [9]: in vivo.

Structures are written as SMILES. Bounds are passed on as bounds.

hERGdof, sequence (Q12809 whole entry): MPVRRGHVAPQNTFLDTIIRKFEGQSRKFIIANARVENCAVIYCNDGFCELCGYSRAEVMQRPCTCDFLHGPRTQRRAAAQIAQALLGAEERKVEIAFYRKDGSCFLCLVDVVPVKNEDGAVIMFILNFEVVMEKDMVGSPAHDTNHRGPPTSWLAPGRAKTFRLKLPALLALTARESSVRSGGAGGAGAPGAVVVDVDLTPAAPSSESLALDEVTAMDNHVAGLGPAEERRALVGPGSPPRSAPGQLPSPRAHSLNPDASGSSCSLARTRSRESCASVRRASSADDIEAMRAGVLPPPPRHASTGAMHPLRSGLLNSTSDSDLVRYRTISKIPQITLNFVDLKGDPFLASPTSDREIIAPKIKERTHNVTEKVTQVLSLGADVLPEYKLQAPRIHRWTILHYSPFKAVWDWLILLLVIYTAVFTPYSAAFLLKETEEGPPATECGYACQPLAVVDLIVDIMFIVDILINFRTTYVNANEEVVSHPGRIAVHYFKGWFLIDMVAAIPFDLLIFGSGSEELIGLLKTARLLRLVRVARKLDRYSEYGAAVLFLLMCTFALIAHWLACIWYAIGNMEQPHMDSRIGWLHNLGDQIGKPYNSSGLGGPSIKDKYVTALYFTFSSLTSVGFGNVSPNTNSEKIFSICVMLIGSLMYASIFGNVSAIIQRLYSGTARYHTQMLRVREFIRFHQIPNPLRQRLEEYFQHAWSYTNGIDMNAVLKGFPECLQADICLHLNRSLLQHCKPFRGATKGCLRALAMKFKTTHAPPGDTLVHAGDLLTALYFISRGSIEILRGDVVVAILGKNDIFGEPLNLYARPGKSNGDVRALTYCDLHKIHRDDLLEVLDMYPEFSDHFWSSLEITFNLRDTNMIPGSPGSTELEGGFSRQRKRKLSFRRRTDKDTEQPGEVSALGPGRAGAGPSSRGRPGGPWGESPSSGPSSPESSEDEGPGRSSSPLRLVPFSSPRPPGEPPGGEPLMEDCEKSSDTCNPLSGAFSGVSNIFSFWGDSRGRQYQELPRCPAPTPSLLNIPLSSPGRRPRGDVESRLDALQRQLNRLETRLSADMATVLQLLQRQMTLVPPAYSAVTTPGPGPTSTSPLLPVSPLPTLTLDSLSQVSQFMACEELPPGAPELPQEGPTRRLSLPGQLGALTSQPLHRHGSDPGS
hERG, sequence (Q12809 whole entry): as above

Usually microsomal CLint stands for the capacity of the preparation to metabolise the compound, expressed as a volume cleared per time. The low end stands for greater metabolic stability, the high end for faster metabolism. `CCc1nc2ccc(C#N)cn2c1C(=O)NCc1ccc(N2CCN(S(=O)(=O)C(F)(F)F)C(OC)=N2)c(F)c1` [Compound 73]: the intrinsic clearance (microsomal CLint) turned out to be 93 µL/min/mg in the series “in vitro [1]” and 18 µL/min/mg in the series “in vitro [5]”. In addition, the IC50 is above 10000 nM on hERGdof; above 10000 nM in the series with Na Ch; 51.3 nM in series [2]; above 20000 nM in [3]; above 10000 nM in the series on Ca Ch. In addition, the “GSH / reactive metabolites” value in series [4] is given as “no measure of GSH”.

For the compound `CCc1nc2ncc(Cl)cn2c1C(=O)NCc1ccc(N2CCN(S(=O)(=O)C(F)(F)F)C=N2)cc1` [Compound 13], the IC50 at hERG was 7400 nM; in the series with Na Ch, above 10000 nM; in series [2], 3.98 nM; in [3], above 20000 nM; in the series with Ca Ch, above 10000 nM. Further, the microsomal CLint in [6] came to 16.3 µL/min/mg; in [7] it was 13.3 µL/min/mg.

On to `CCc1nc2ccc(Cl)cn2c1C(=O)NCc1ccc(N2CCN(S(=O)(=O)C(F)(F)F)C(OC)=N2)cc1` [Compound 6], for which the intrinsic clearance (microsomal CLint) came out at 49 µL/min/mg in “in vitro [1]” and 37.6 µL/min/mg in “in vitro [5]”. Moreover, the IC50 is above 10000 nM on hERGdof; above 10000 nM with Na Ch; 6.31 nM in series [2]; above 20000 nM in series [3]; above 10000 nM with Ca Ch. In [4], the “GSH / reactive metabolites” value is recorded as “no measure of GSH”. Moreover, in [8], the “Glu/Gal assay ratio (mitotoxicity)” value is reported as below 3.

For `CCc1nc2ccc(Cl)cn2c1C(=O)NCc1ccc(N2CCN(S(=O)(=O)C(F)(F)F)C(CCOC)=N2)cc1` [Compound 55], the IC50 in [2] was 25.7 nM.

Take `CCc1nc2ccc(Cl)cn2c1C(=O)NCc1ccc(N2CCN(C(C)=O)C=N2)cc1` [Compound 18]: the IC50 in series [2] was 15.8 nM.

In the case of `CCc1nc2ccc(C)cn2c1C(=O)NCc1ccc(N2CCN(S(=O)(=O)C(F)(F)F)C(C)=N2)cc1` [Compound 215], the IC50 in series [2] is 0.912 nM.

Turning to `COC1=NN(c2ccc(CNC(=O)c3c(C(F)F)nc4ccc(Cl)cn34)cc2F)CCN1S(=O)(=O)C(F)(F)F` [Compound 206], the IC50 in [2] is 2.45 nM.

Regarding `CCc1nc2ccc(Cl)cn2c1C(=O)NCc1ccc(N2CCN(S(=O)(=O)C(F)(F)F)C=N2)c(C)c1` [Compound 5], the IC50 in [2] was 7.94 nM.

`CCc1nc2ccc(Cl)cn2c1C(=O)NCc1ccc(N2C=NN(C)CC2)cc1` [Compound 4]: the IC50 in series [2] is 39.8 nM.

`CCc1nc2ccc(Cl)cn2c1C(=O)NCc1ccc(N2CCN(S(=O)(=O)C(F)(F)F)C=N2)nc1` [Compound 171]: the IC50 in [2] is 25.1 nM.

Regarding `CCc1nc2nc3c(cn2c1C(=O)NCc1ccc(N2CCN(S(=O)(=O)C(F)(F)F)C=N2)c(F)c1)CCOC3` [Compound 169], the IC50 in series [2] was 10 nM.

With `CCc1nc2ccc(Cl)cn2c1C(=O)NCc1cc(F)c(N2CCN(S(=O)(=O)C(F)(F)F)C=N2)c(F)c1` [Compound 35], in series [2], the IC50 is 5.01 nM.

For the compound `O=C(NCc1ccc(N2CCN(S(=O)(=O)C(F)(F)F)C=N2)cc1)c1c(C2CC2)nc2ncc(Cl)cn12` [Compound 7], the IC50 in series [2] was 63.1 nM.

In the case of `CCc1nc2ccc(Cl)cn2c1C(=O)NCc1ccc(N2CCN(S(=O)(=O)CC(C)C)C=N2)cc1` [Compound 17], in series [2], the IC50 was 20 nM.

For the compound `CCc1nc2cc(OC)c(Cl)cn2c1C(=O)NCc1ccc(N2CCN(S(=O)(=O)C(F)(F)F)C=N2)cc1` [Compound 64], the IC50 in series [2] is 316 nM.

Turning to `CCc1nc2cc3c(cn2c1C(=O)NCc1ccc(N2CCN(S(=O)(=O)C(F)(F)F)C=N2)c(F)c1)OCCO3` [Compound 100], the IC50 in [2] was 31.6 nM.

As for `CCc1nc2ccc(Cl)cn2c1C(=O)NCc1ccc(N2CCN(S(=O)(=O)C(F)(F)F)C=N2)c(F)c1` [Compound 9], the IC50 at hERGdof was above 10000 nM; in the series on Na Ch, above 10000 nM; in series [2], 0.631 nM; in series [3] it was above 20000 nM; in the series on Ca Ch it was above 10000 nM. Also, the microsomal CLint was found to be 19 µL/min/mg in series [6] and 41 µL/min/mg in series [7].

Regarding `O=C(NCc1ccc(N2CCN(S(=O)(=O)C(F)(F)F)C=N2)c(F)c1)c1c(C(F)(F)F)nc2ccc(Cl)cn12` [Compound 124], the IC50 in [2] is 10 nM.

As to `CCc1nc2cc(OC)c(Cl)cn2c1C(=O)NCc1ccc(N2CCN(S(=O)(=O)C(F)(F)F)C(OC)=N2)cc1` [Compound 68], the IC50 in [2] was at least 501 nM.

Turning to `O=C(NCc1ccc(N2CCN(S(=O)(=O)C(F)(F)F)C=N2)c(F)c1)c1c(C(F)(F)F)nc2ccccn12` [Compound 152], the IC50 in [2] is 2 nM. In addition, the “GSH / reactive metabolites” value in [4] is “formation of reactive metabolites was blocked”. The “bioavailability (as shown in rodents)” value in series [9] was “good bioavailaibility”. In addition, the “Glu/Gal assay ratio (mitotoxicity)” value in series [8] is below 3.

Consider `CCc1nc2nc3c(cn2c1C(=O)NCc1ccc(N2CCN(S(=O)(=O)C(F)(F)F)C=N2)c(F)c1)COCC3` [Compound 90], for which the IC50 in series [2] was 74.1 nM.

Regarding `CCc1nc2cc(Br)c(Cl)cn2c1C(=O)NCc1ccc(N2CCN(S(=O)(=O)C(F)(F)F)C=N2)c(F)c1` [Compound 103], the IC50 in series [2] is 28.2 nM.

Take `Cc1ccc2nc(C(F)(F)F)c(C(=O)NCc3cnc(N4CCN(S(=O)(=O)C(F)(F)F)C=N4)c(F)c3)n2c1` [Compound 176]: in series [2], the IC50 was 15.8 nM.

Take `CCc1nc2cc(OC)ccn2c1C(=O)NCc1ccc(N2CCN(S(=O)(=O)C(F)(F)F)C=N2)cc1` [Compound 51]: in [2], the IC50 was 45.7 nM.

For `CCC1=NN(c2ccc(CNC(=O)c3c(CC)nc4ccc(Cl)cn34)cc2)CCN1S(=O)(=O)C(F)(F)F` [Compound 2], in series [2], the IC50 is 15.8 nM.

Consider `CCc1nc2cc3c(cn2c1C(=O)NCc1ccc(N2CCN(S(=O)(=O)C(F)(F)F)C=N2)c(F)c1)OCO3` [Compound 134], for which the IC50 in series [2] is 7.59 nM.

On to `CCc1nc2cc(F)c(Cl)cn2c1C(=O)NCc1ccc(N2CCNC=N2)c(F)c1` [Compound 202], for which, in series [2], the IC50 was 389 nM.

Consider `CCc1nc2n(c1C(=O)NCc1ccc(N3CCN(S(=O)(=O)CCOC)C=N3)cc1)CCCC2` [Compound 58], for which the IC50 in [2] was 251 nM.

For `CCc1nc2cc3c(cn2c1C(=O)NCc1ccc(N2CCN(S(=O)(=O)C(F)(F)F)C=N2)c(F)c1)OCC3` [Compound 131], in series [2], the IC50 was 8.71 nM.

Turning to `CCc1nc2ccc(Cl)cn2c1C(=O)NCc1cnc(N2CCN(S(=O)(=O)C(F)(F)F)C=N2)c(F)c1` [Compound 142], in [2], the IC50 is 4.68 nM.

Regarding `CCc1nc2ncc(F)cn2c1C(=O)NCc1ccc(N2CCN(S(=O)(=O)C(F)(F)F)C(OC)=N2)c(F)c1` [Compound 121], the IC50 in series [2] was 12.9 nM.

As to `CCc1nc2ccc(Cl)cn2c1C(=O)NCc1ccc(N2CCN(S(=O)(=O)C(F)(F)F)C=N2)cc1F` [Compound 16], the IC50 is above 10000 nM at hERGdof; above 10000 nM in the series on Na Ch; 6.31 nM in [2]; above 20000 nM in series [3]; above 10000 nM with Ca Ch. For the same compound, the intrinsic clearance (microsomal CLint) came out at 24 µL/min/mg in [6] and 18 µL/min/mg in series [7].

Take `CCc1nc2n(c1C(=O)NCc1ccc(N3CCNC=N3)cc1)CCCC2` [Compound 57]: in series [2], the IC50 is at least 501 nM.

Turning to `CCc1nc2c(C)cc(Cl)cn2c1C(=O)NCc1ccc(N2CCN(S(=O)(=O)C(F)(F)F)C=N2)c(F)c1` [Compound 85], the IC50 in series [2] was 95.5 nM.

Regarding `CCc1nc2ncc(F)cn2c1C(=O)NCc1ccc(N2CCN(S(=O)(=O)C(F)(F)F)C=N2)cc1` [Compound 10], the IC50 in series [2] is 63.1 nM.

Regarding `CCc1nc2c(Cl)cc(C)cn2c1C(=O)NCc1ccc(N2CCN(S(=O)(=O)C(F)(F)F)C=N2)c(F)c1` [Compound 102], the IC50 in series [2] is 29.5 nM.

Take `CCc1nc2ccc(F)cn2c1C(=O)NCc1ccc(N2CCN(S(=O)(=O)C(F)(F)F)C(OC)=N2)c(F)c1` [Compound 204]: the IC50 in [2] is 4.47 nM.

As to `CCc1nc2ncc(C(=O)N(C)C)cn2c1C(=O)NCc1ccc(N2CCN(S(=O)(=O)C(F)(F)F)C=N2)cc1` [Compound 60], the IC50 in series [2] was 200 nM.

With `CCc1nc2cc(F)c(Cl)cn2c1C(=O)NCc1ccc(N2CCN(S(=O)(=O)C(F)(F)F)C(OC)=N2)c(F)c1` [Compound 141], the IC50 in series [2] was 4.9 nM.

For `CCc1nc2ccc(C#N)cn2c1C(=O)NCc1ccc(N2CCN(S(=O)(=O)C(F)(F)F)C=N2)cc1` [Compound 72], the IC50 in series [2] was 158 nM.

For the compound `CCc1nc2cc(OC)ccn2c1C(=O)NCc1ccc(N2CCN(S(=O)(=O)C(F)(F)F)C(OC)=N2)c(F)c1` [Compound 75], the IC50 in series [2] was 6.31 nM.

Consider `CCc1nc2c(C)cc(C)cn2c1C(=O)NCc1cnc(N2CCN(S(=O)(=O)C(F)(F)F)C=N2)c(F)c1` [Compound 183], for which, in series [2], the IC50 is 200 nM.

In the case of `O=C(NCc1ccc(N2CCNC=N2)c(F)c1)c1c(C(F)(F)F)nc2ccccn12` [Compound 192], the IC50 in series [2] is above 500 nM.

Turning to `CCc1nc2ccc(Cl)cn2c1C(=O)NCc1cnc(N2CCN(S(=O)(=O)C(F)(F)F)C=N2)c(C)c1` [Compound 208], the IC50 in [2] is 69.2 nM.
